US5362630A, “Isolation of pseudomonas salicylate hydroxlase and its use for the identification and quantitation of salicylate in body fluids” (Duke University, priority 1992, dated 1994)

Tests used:
salicylate hydroxylase [1] = assay: Salicylate hydroxylase enzyme assay (NAD(P)H oxidation at 340 nm); type: biochemical, Pseudomonas
Description: Generally the reaction is carried out in a buffered solution (unless pH change or CO2 evolution is being measured). The buffer should offer near physiological conditions of pH and ionic strength for the enzyme. A potassium phosphate buffer, pH 7.6, at a concentration of 20 mM is preferred, although any pH from 6.5 to 8.9 and concentration from 5 to 100 mM is adequate. The sample may be added in any amount sufficient to trigger enzyme activity (if the salicylate is present in the sample) and the choice of sample size is discussed fully at a later time. From 1 to 40 μl per ml of total volume is convenient. Since the enzyme is generally available as a solution, it is conveniently added as such. About 10 μl of an enzyme solution containing 0.01 to 1 IU/ml is sufficient for most conditions, although the amount may be increased to speed up the reaction or decreased to slow the reaction down as needed. One IU (International Unit) is the amount of enzyme required to catalyze the disappearance of one μmole of NADH/min. NADH (or NADPH) may be present in a concentration of from about 10 to about 290 μM. Since the concentration of O2 in aqueous media is between 0.20 mM and 0.30 mM, it is not necessary to keep NAD(P)H concentration higher than […].
Enzyme Assay. The assay procedure for the enzyme and the definition of the enzyme were the same as that described in White-Stevens and Kamin (1970) except that EDTA and FAD were excluded in the assay mixture of the present work. The extinction coefficient of 6.22×10^3 M^-1 cm^-1 was used to convert the A340 change to micromoles of NADH oxidized.

[2] = cited from earlier work
salicylate hydroxylase [3] = details: cited from earlier work; for product inhibition of the enzyme: found by White-Stevens and Kamin

Row | Compound | inhibition of / interference with the enzyme activity (salicylate hydroxylase [1]) | other results
1 | O=C(O)CN(CCN(CC(=O)O)CC(=O)O)CC(=O)O [EDTA, ethylenediaminetetracetic acid] | do not inhibit | 
2 | CC(=O)Nc1ccc(O)cc1 [acetaminophen] | do not interfere | 
3 | CC(=O)Oc1ccccc1C(=O)O [aspirin, acetylsalicylic acid] |  | overdose serum/plasma level (serious poison, coma and death) [2]: over 45 mg/dl
4 | O=C(O)c1ccccc1 [benzoate] |  | Km (salicylate hydroxylase [3]; substrate or pseudosubstrate of salicylate hydroxylase, read-out: Km of the enzyme): 2000 µM
5 | Oc1ccccc1O [catechol] |  | product inhibition of the enzyme (salicylate hydroxylase [3]): no product inhibition
6 | O=C(O)CC(O)(CC(=O)O)C(=O)O [citrate] | do not inhibit | 
7 | O=C(O)C(=O)O [oxalate] | do not inhibit | 
8 | O=C(O)c1ccccc1O [salicylate] |  | therapeutic range, serum or plasma level [2]: 5 to 40 mg/dL
9 | NAD(P)^+ |  | product inhibition of the enzyme (salicylate hydroxylase [3]): no product inhibition
10 | heparin | no effect | 
